In ChEMBL document CHEMBL5620346, “Current scenario of pyrazole hybrids with in vivo therapeutic potential against cancers” (Eur J Med Chem, 2023):

What was measured:
[1] = […] in mouse xenografted with human NCI-H526 cells assessed as reduction in tumor growth at 3 mg/kg, po relative to control; type: organism-based; conditions: in vivo
[2] = tested on: OE19; assay: Antitumor activity against human OE19 cells xenografted in NOD/SCID mouse model assessed as tumor growth inhibition at 25 mg/kg, ip administered for 14 days in presence of flavopiridol relative to control; type: functional; design: scale not given: the % may be the effect or the level left; conditions: time 14 day
[3] = tested on: OE19; assay: Antitumor activity against human OE19 cells xenografted in NOD/SCID mouse model assessed as tumor growth inhibition at 25 mg/kg, ip administered for 46 days relative to control; type: functional; design: scale not given: the % may be the effect or the level left; conditions: time 46 day
[4] = tested on: OE19; assay: Antitumor activity against human OE19 cells xenografted in NOD/SCID mouse model assessed as tumor growth inhibition at 25 mg/kg, ip administered for 14 days relative to control; type: functional; conditions: OE19, 336 h, time 14 day, read-out: TGI
[5] = tested on: NCI-H460; assay: Antitumor activity against human NCI-H460 cells xenografted in nude mouse assessed as tumor growth inhibition at 6.25 mg/kg, po administered twice daily for 14 days in presence of 2-deoxyglucose relative to control; type: functional; design: scale not given: the % may be the effect or the level left; conditions: time 14 day
[6] = tested on: MDA-MB-435; assay: Antitumor activity against human MDA-MB-435 cells xenografted in Sprague-Dawley rat model assessed as reduction in tumor volume at 50 mg/kg, ip relative to control; type: functional; design: scale not given: the % may be the effect or the level left
[7] = target: Ubiquitin carboxyl-terminal hydrolase 8 (Homo sapiens, UniProt P40818); assay: Inhibition of human USP8 expressed in Escherichia coli using K63-linked di-ubiquitin (ENZO BML-UW0730-0050) as substrate preincubated for 15 mins followed by substrate addition and measured after 20 mins by fluorescence based analysis
[8] = Antiproliferative activity against human 95-D cells assessed as reduction in cell growth incubated for 72 hrs by SRB assay; type: functional, cell-based
[9] = tested on: HCT-116; assay: Antiproliferative activity against human HCT-116 cells assessed as reduction in cell growth incubated for 72 hrs by SRB assay; type: functional, cell-based; conditions: HCT-116, 72 h
[10] = tested on: HepG2; assay: Antiproliferative activity against human HepG2 cells assessed as reduction in cell growth incubated for 72 hrs by SRB assay; type: functional, cell-based; conditions: HepG2, 72 h
[11] = tested on: NCI-H1299; assay: Antiproliferative activity against human NCI-H1299 cells assessed as reduction in cell growth incubated for 72 hrs by SRB assay; type: functional, cell-based; conditions: NCI-H1299, 72 h
[12] = tested on: MDA-MB-231; assay: Antiproliferative activity against human MDA-MB-231 cells assessed as reduction in cell growth incubated for 72 hrs by SRB assay; type: functional, cell-based; conditions: MDA-MB-231, 72 h
[13] = Antiproliferative activity against HUVEC cells assessed as cell growth inhibition measured after 72 hrs by crystal violet staining based analysis; type: toxicity; conditions: human
[14] = tested on: K562; assay: Antiproliferative activity against human K562 cells assessed as reduction in cell growth incubated for 72 hrs by SRB assay; type: functional, cell-based; conditions: K562, 72 h
[15] = tested on: SK-OV-3; assay: Antiproliferative activity against human SK-OV-3 cells assessed as reduction in cell growth incubated for 72 hrs by SRB assay; type: functional, cell-based; conditions: SK-OV-3, 72 h
[16] = tested on: HCT-116; assay: Antitumor activity against human HCT-116 cells xenografted in BALB/c nude mouse assessed as tumor growth inhibition at 25 mg/kg, po administered once a daily for 13 consecutive days relative to control; type: functional; conditions: read-out: TGI
[17] = tested on: Bel-7402; assay: Antiproliferative activity against human Bel-7402 cells assessed as reduction in cell growth incubated for 72 hrs by SRB assay; type: functional, cell-based; conditions: Bel-7402, 72 h
[18] = tested on: U-87 MG; assay: Antiproliferative activity against human U87 cells assessed as reduction in cell growth incubated for 72 hrs by SRB assay; type: functional, cell-based, U-87MG ATCC
[19] = tested on: HCT-116; assay: Antitumor activity against human HCT-116 cells xenografted in BALB/c nude mouse assessed as tumor growth inhibition at 50 mg/kg, po administered once a daily for 13 consecutive days relative to control; type: functional; conditions: read-out: TGI
[20] = tested on: PANC-1; assay: Antiproliferative activity against human PANC-1 cells assessed as reduction in cell growth incubated for 72 hrs by SRB assay; type: functional, cell-based; conditions: PANC-1, 72 h
[21] = Cytotoxicity against human NCM460 cells assessed as reduction in cell viability incubated for 48 hrs by MTT assay; type: toxicity, cell-based
[22] = tested on: NCI-H1975; assay: Antiproliferative activity against human NCI-H1975 cells assessed as reduction in cell growth incubated for 72 hrs by SRB assay; type: functional, cell-based; conditions: NCI-H1975, 72 h
[23] = tested on: HeLa; assay: Cytotoxicity against human HeLa cells assessed as reduction in cell viability incubated for 72 hrs by MTT assay; type: functional, cell-based
[24] = tested on: MCF7; assay: Cytotoxicity against human MCF7 cells assessed as reduction in cell viability incubated for 72 hrs by MTT assay; type: functional, cell-based; conditions: MCF7, 72 h
[25] = tested on: HepG2; assay: Cytotoxicity against human HepG2 cells assessed as reduction in cell viability incubated for 72 hrs by MTT assay; type: functional, cell-based; conditions: HepG2, 72 h
[26] = tested on: HT-29; assay: Antitumor activity against human HT-29 cells xenografted in nude mouse assessed as reduction in tumor growth at 50 mg/kg, po administered for 21 days relative to control; type: functional; conditions: HT-29, 504 h, time 21 day, read-out: TGI
[27] = tested on: HT-29; assay: Antiproliferative activity against human HT-29 cells assessed as cell growth inhibition incubated for 72 hrs by MTT assay; type: functional, cell-based; conditions: HT-29, 72 h
[28] = tested on: MCF7; assay: Antiproliferative activity against human MCF7 cells assessed as cell growth inhibition incubated for 72 hrs by MTT assay; type: functional, cell-based; conditions: MCF7, 72 h
[29] = tested on: HT-29; assay: Antitumor activity against human HT-29 cells xenografted in nude mouse assessed as reduction in tumor growth at 50 mg/kg, ip administered for 21 days relative to control; type: functional; conditions: HT-29, 504 h, time 21 day, read-out: TGI
[30] = tested on: MCF-10A; assay: Cytotoxicity against human MCF-10A cells assessed as reduction in cell viability measured after 72 hrs by SRB assay; type: functional, cell-based
[31] = tested on: MCF7; assay: Cytotoxicity against human MCF7 cells assessed as reduction in cell viability measured after 72 hrs by SRB assay; type: functional, cell-based; conditions: MCF7, 72 h
[32] = tested on: H22; assay: Antitumor activity against mouse H22 cells implanted in Kunming mouse assessed as reduction in tumor growth at 10 mg/kg, iv relative to control; type: functional; conditions: read-out: TGI
[33] = tested on: H22; assay: Antitumor activity against mouse H22 cells implanted in Kunming mouse assessed as reduction in tumor growth at 20 mg/kg, iv relative to control; type: functional; conditions: read-out: TGI

Sequence of Ubiquitin carboxyl-terminal hydrolase 8 (P40818 whole entry): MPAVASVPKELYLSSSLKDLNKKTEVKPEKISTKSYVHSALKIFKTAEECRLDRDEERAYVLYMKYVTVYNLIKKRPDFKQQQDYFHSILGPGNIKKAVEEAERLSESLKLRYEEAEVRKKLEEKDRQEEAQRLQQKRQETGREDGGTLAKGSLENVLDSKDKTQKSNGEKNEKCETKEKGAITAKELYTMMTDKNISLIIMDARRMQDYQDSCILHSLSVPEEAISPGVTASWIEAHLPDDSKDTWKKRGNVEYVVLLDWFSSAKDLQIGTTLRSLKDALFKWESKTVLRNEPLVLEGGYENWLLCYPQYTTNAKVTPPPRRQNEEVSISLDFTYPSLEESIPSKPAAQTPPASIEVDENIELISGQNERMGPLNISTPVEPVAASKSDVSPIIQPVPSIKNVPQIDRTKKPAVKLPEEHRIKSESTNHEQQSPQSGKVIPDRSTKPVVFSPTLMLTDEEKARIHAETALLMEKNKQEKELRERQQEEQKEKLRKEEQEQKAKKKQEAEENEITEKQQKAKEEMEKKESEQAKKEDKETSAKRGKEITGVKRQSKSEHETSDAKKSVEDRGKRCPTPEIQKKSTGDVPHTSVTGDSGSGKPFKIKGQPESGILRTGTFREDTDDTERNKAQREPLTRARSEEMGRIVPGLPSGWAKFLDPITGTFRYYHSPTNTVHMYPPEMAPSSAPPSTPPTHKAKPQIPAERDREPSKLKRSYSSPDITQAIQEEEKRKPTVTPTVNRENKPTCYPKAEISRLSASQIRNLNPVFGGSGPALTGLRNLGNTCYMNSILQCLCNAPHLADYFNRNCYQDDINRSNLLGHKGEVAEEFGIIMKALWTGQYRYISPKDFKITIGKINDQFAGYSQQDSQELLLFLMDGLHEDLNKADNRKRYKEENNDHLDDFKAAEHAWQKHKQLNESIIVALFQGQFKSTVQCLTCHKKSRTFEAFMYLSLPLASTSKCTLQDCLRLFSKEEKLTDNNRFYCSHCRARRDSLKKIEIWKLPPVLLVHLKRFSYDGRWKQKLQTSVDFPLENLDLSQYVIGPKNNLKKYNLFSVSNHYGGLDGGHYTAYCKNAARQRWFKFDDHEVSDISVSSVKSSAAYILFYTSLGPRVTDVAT

Compound: Cc1nnn(C)c1-c1cnc2c3cc4cnn(C)c4cc3n([C@H](c3ccccc3)C3CCOCC3)c2c1
- TGI [1]: 100%

Compound: C[C@@]1(C(=O)Nc2ccc(F)nc2)CCCN1c1nc(Nc2cc(C3CC3)n[nH]2)c2cccn2n1 [BMS-754807]
- Activity [2]: 92.2%
- Activity [3]: 61.8%
- inhibition in vivo at 25 mg/kg [4]: 52%
- Activity [5]: 69%

Compound: Brc1ccc(-n2nc(-c3cccnc3)cc2-c2ccccc2)cc1
- Activity [6]: 40%
- IC50 [7]: 1200 nM

Compound: CCOc1ccc(Oc2ccc(C3=NN(C4=NC(=O)CS4)C(c4cc(O)c(O)c(Br)c4Br)C3)cc2)cc1 (centres undefined)
- IC50 [8]: 2640 nM
- IC50 [9]: 2640 nM
- IC50 [10]: 2640 nM
- IC50 [11]: 2640 nM
- IC50 [12]: 2640 nM
- IC50 at 72 h [13]: 28.3 µM
- IC50 [14]: 2640 nM
- IC50 [15]: 2640 nM
- inhibition in vivo at 25 mg/kg [16]: 58.8%
- IC50 [17]: 2640 nM
- IC50 [18]: 2640 nM
- inhibition in vivo at 50 mg/kg [19]: 67.2%
- IC50 [20]: 2640 nM
- IC50 at 48 h [21]: 27.1 µM
- IC50 [22]: 2640 nM

Compound: Cc1n[nH]c2c1C(c1ccc(N(C)C)cc1)C(C(N)=O)=C(N)N2 (centres undefined)
- IC50 [23]: 4.18 µM
- IC50 [24]: 4.24 µM
- IC50 [25]: 4.55 µM

Compound: O=C1CN(CC(=O)N2N=C(c3ccccc3)CC2c2ccccc2)C(=O)N1 (centres undefined)
- inhibition in vivo at 50 mg/kg [26]: 34%
- IC50 [27]: 10 nM
- IC50 [28]: 690 nM
- inhibition in vivo at 50 mg/kg [29]: 31%

Compound: O=c1[nH]cc(F)c(=O)[nH]1 [FLUOROURACIL]
- inhibition in vivo at 25 mg/kg [16]: 54.8%

Compound: COc1ccc(C2CC(c3ccc(OC)c(OC)c3)=NN2c2nc(-c3ccccc3)cs2)cc1 (centres undefined)
- IC50 [30]: > 50 µM
- IC50 [31]: 7.21 µM

Compound: COc1cccc(C2=NN(C(N)=O)C(c3cn(C)c4ccc(Br)cc34)C2)c1 (centres undefined)
- inhibition in vivo at 10 mg/kg [32]: 65%
- inhibition in vivo at 20 mg/kg [33]: 76%
